Assay results taken from US11434226B2, “Salt and polymorph of benzopyrimidinone compound and pharmaceutical composition and use thereof” (SHANGHAI INSTITUTE OF MATERIA MEDICA, CHINESE ACADEMY OF …, priority 2017, dated 2022).
“Also recorded” adds a separate entry of the source. Where a name gives a salt, the structure may show the parent alone. Read-outs that look alike come from different tables or passages of the source.

Columns and labels:
[1] = Hygroscopicity of solid forms of hydrochlorate of compound Z; format: physicochemical
Source text: (§1) The properties of crystalline form A prepared in Examples 11 or 12, crystalline form B prepared in Example 14 and amorphous substance prepared in Example 15 were compared, the results were shown in the following table 6.

[2] = Comparison of solubility of compound Z and its salts; format: physicochemical
Source text: An appropriate amount of the sample was weighed in a glass test tube and a selected solvent was gradually added therein to observe the clarification.

[3] = Chemical stability by stress testing (high temperature, high humidity, illumination); format: physicochemical; settings: for stability, in words: high temperature, light and high humidity conditions
Source text: The chemical stability of the basic compound Z prepared in Example 16 and the salts of compound Z prepared in Examples 5, 9 and 10 was compared through a stress testing, the results were shown in the table below: […]

[4] = Comparison of compound appearance and characters (odor); format: physicochemical
Source text: The appearance and characters of the basic compound Z prepared in Example 16 and different salts of compound Z prepared in Examples 1-2, 5-6, 9 were observed, the results are shown in the table below: […]

[5] = Crystal stability of solid forms of hydrochlorate of compound Z; format: physicochemical
Source text: as §1

[6] = In vivo pharmacokinetic experiment in rats; settings: by gavage
Procedure: The in vivo pharmacokinetic experiment in rats were carried out for the basic compound Z prepared in Example 16, the hydrochlorate of compound Z prepared in Example 9, the succinate of compound Z prepared in Example 2, the fumarate of compound Z prepared in Example 3 (administered by gavage, dose 3 mg/kg), the results were shown in FIG. 8 of the specification.

[7] = selected solvent of pH 2 (composition not named), simulated gastric fluid, thermodynamic from solid, pH = 2, read-out: Solubility
[8] = selected solvent of pH 4.5 (composition not named), aqueous buffer, thermodynamic from solid, pH = 4.5, read-out: Solubility
[9] = selected solvent of pH 6.8 (composition not named), aqueous buffer, thermodynamic from solid, pH = 6.8, read-out: Solubility
[10] = thermodynamic from solid, water (deionized), read-out: Solubility
[11] = High humidity (25° C., 92.5% RH), 5 days
[12] = High humidity (25° C., 92.5% RH), 10 days
[13] = high temperature (60° C.), 5 days
[14] = high temperature (60° C.), 10 days
[15] = illumination (4500 lx ± 500 lx), 5 days
[16] = illumination (4500 lx ± 500 lx), 10 days

| Compound | solubility [2, 7] [mg/mL] | solubility [2, 8] [mg/mL] | solubility [2, 9] [mg/mL] | solubility [2, 10] [mg/mL] | characters ([3]; 0 days) | purity ([3]; 0 days) [%] | characters [3, 11] | purity [3, 11] [%] | characters [3, 12] | purity [3, 12] [%] | characters [3, 13] | purity [3, 13] [%] | characters [3, 14] | purity [3, 14] [%] | characters [3, 15] | purity [3, 15] [%] | characters [3, 16] | odor [4] | other results |
| --- | --- | --- | --- | --- | --- | --- | --- | --- | --- | --- | --- | --- | --- | --- | --- | --- | --- | --- | --- |
| CCCOc1ccc(NC(=O)CN2CCN(C)CC2)cc1-c1nc(CC)c(CC)c(=O)[nH]1.Cl [Amorphous, 5,6-diethyl-2-[2-n-propoxy-5-(2-(4-methylpiperazin-1-yl)acetamido)phenyl]pyrimidin-4(3H)-one Hydrochloride (Amorphous)] |  |  |  |  |  |  |  |  |  |  |  |  |  |  |  |  |  |  | hygroscopicity, water absorption ([1]; 65% RH): 65% RH, water absorption 16.53%; hygroscopicity, water absorption ([1]; 80% RH): 80% RH, water absorption 6.74% |
| CC(=O)O.CCCOc1ccc(NC(=O)CN2CCN(C)CC2)cc1-c1nc(CC)c(CC)c(=O)[nH]1 [acetate of compound Z, 5,6-diethyl-2-[2-n-propoxy-5-(2-(4-methylpiperazin-1-yl)acetamido)phenyl]pyrimidin-4(3H)-one Acetate] | 35.8 | > 102 | 22.6 | 14 |  |  |  |  |  |  |  |  |  |  |  |  |  |  |  |
| CCCOc1ccc(NC(=O)CN2CCN(C)CC2)cc1-c1nc(CC)c(CC)c(=O)[nH]1 [compound Z, 5,6-diethyl-2-[2-n-propoxy-5-(2-(4-methylpiperazin-1-yl)acetamido)phenyl]pyrimidin-4(3H)-one] | 5.3 | 38.1 | 1.7 | 1.5 | White | 99.6 | White | 99.64 | White | 99.53 | White | 99.69 | White | 99.36 | Yellowish | 99.37 | Yellowish | Pungent odor | stability, in words [3]: relatively poor; solubility, in words [2]: poor solubility in water; also recorded: significantly lower |
| CCCOc1ccc(NC(=O)CN2CCN(C)CC2)cc1-c1nc(CC)c(CC)c(=O)[nH]1 [form A, 5,6-diethyl-2-[2-n-propoxy-5-(2-(4-methylpiperazin-1-yl)acetamido)phenyl]pyrimidin-4(3H)-one hydrochloride monohydrate (Form A)] |  |  |  |  |  |  |  |  |  |  |  |  |  |  |  |  |  |  | Crystal stability [5]: stable; Crystal stability ([5]; listed as crystal form A): stable properties; hygroscopicity, in words [1]: low hygroscopicity; hygroscopicity, water absorption ([1]; 65% RH): 65% RH, water absorption 2.48%; hygroscopicity, water absorption ([1]; 80% RH): 80% RH, water absorption 3.41% |
| CCCOc1ccc(NC(=O)CN2CCN(C)CC2)cc1-c1nc(CC)c(CC)c(=O)[nH]1.Cl [form B, 5,6-diethyl-2-[2-n-propoxy-5-(2-(4-methylpiperazin-1-yl)acetamido)phenyl]pyrimidin-4(3H)-one Hydrochlorate (Form B)] |  |  |  |  |  |  |  |  |  |  |  |  |  |  |  |  |  |  | hygroscopicity, water absorption ([1]; 65% RH): 65% RH, water absorption 3.58%; hygroscopicity, water absorption ([1]; 80% RH): 80% RH, water absorption 11.3% |
| CCCOc1ccc(NC(=O)CN2CCN(C)CC2)cc1-c1nc(CC)c(CC)c(=O)[nH]1.O=C(O)/C=C/C(=O)O [fumarate of compound Z, 5,6-diethyl-2-[2-n-propoxy-5-(2-(4-methylpiperazin-1-yl)acetamido)phenyl]pyrimidin-4(3H)-one Fumarate] | > 24.2 | > 20.2 | > 27 | > 26.6 |  |  |  |  |  |  |  |  |  |  |  |  |  |  |  |
| CCCOc1ccc(NC(=O)CN2CCN(C)CC2)cc1-c1nc(CC)c(CC)c(=O)[nH]1.Cl [hydrochlorate of compound Z, 5,6-diethyl-2-[2-n-propoxy-5-(2-(4-methylpiperazin-1-yl)acetamido)phenyl]pyrimidine-4(3H)-one Hydrochlorate] | > 22.8 | > 23.6 | > 26.6 | > 25 | White | 99.77 | White | 99.73 | White | 99.77 | White | 99.65 | White | 99.71 | White | 99.79 | White | No bad smell | stability, in words [3]: high stability; stability, in words ([3]; listed as hydrochlorate): stable; purity [3, 16]: 99.72%; oral bioavailability, in words ([6]; 3 mg/kg): high oral bioavailability; in vivo pharmacokinetic properties (plasma concentration-time curve, FIG. 8), in words ([6]; dose 3 mg/kg, compared with compound Z): significantly better; solubility, in words [2]: good solubility |
| CCCOc1ccc(NC(=O)CN2CCN(C)CC2)cc1-c1nc(CC)c(CC)c(=O)[nH]1.O=C(O)/C=C\C(=O)O [maleate of compound Z, 5,6-diethyl-2-[2-n-propoxy-5-(2-(4-methylpiperazin-1-yl)acetamido)phenyl]pyrimidine-4(3H)-one Maleate] | 6.1 | 21.4 | 46.4 | 5.8 |  |  |  |  |  |  |  |  |  |  |  |  |  | No bad smell |  |
| CCCOc1ccc(NC(=O)CN2CCN(C)CC2)cc1-c1nc(CC)c(CC)c(=O)[nH]1.CS(=O)(=O)O [methanesulfonate of compound Z, 5,6-diethyl-2-[2-n-propoxy-5-(2-(4-methylpiperazin-1-yl)acetamido)phenyl]pyrimidin-4(3H)-one Methanesulfonate] | > 22.4 | > 25.4 | > 23.2 | > 23.8 | White | 99.66 | Yellow | 99.54 | Yellow | 99.55 | White | 99.54 | White | 99.49 | White | 99.72 | White | No bad smell | purity [3, 16]: 99.46% |
| CCCOc1ccc(NC(=O)CN2CCN(C)CC2)cc1-c1nc(CC)c(CC)c(=O)[nH]1.O=C(O)[C@@H](O)[C@H](O)[C@H](O)[C@@H](O)C(=O)O [mucate of compound Z, 5,6-diethyl-2-[2-n-propoxy-5-(2-(4-methylpiperazin-1-yl)acetamido)phenyl]pyrimidin-4(3H)-one Mucate] |  |  |  |  |  |  |  |  |  |  |  |  |  |  |  |  |  |  | solubility ([2]; pH = 2): 36.3 mg/mL; solubility ([2]; pH = 4.5): 62.7 mg/mL; solubility ([2]; pH = 6.8): 39.0 mg/mL; solubility ([2]; water (deionized)): 10.6 mg/mL |
| CCCOc1ccc(NC(=O)CN2CCN(C)CC2)cc1-c1nc(CC)c(CC)c(=O)[nH]1.O=C(O)CCC(=O)O [succinate of compound Z, 5,6-diethyl-2-[2-n-propoxy-5-(2-(4-methylpiperazin-1-yl)acetamido)phenyl]pyrimidin-4(3H)-one Succinate] | > 20.8 | > 22 | > 20.8 | > 24.8 |  |  |  |  |  |  |  |  |  |  |  |  |  | No bad smell |  |
| CCCOc1ccc(NC(=O)CN2CCN(C)CC2)cc1-c1nc(CC)c(CC)c(=O)[nH]1.O=S(=O)(O)O [sulfate of compound Z, 5,6-diethyl-2-[2-n-propoxy-5-(2-(4-methylpiperazin-1-yl)acetamido)phenyl]pyrimidin-4(3H)-one Sulfate] | > 20.2 | > 25.6 | > 24.4 | > 20.6 | Yellow | 99.63 | Yellow powder | 99.64 | Yellow powder | 99.62 | Yellow | 99.59 | Yellow | 99.64 | Yellow | 97.43 | Gray-yellow |  | purity [3, 16]: 96.99% |
| CCCOc1ccc(NC(=O)CN2CCN(C)CC2)cc1-c1nc(CC)c(CC)c(=O)[nH]1.O=C(O)C(O)C(O)C(=O)O [tartrate of compound Z, 5,6-diethyl-2-[2-n-propoxy-5-(2-(4-methylpiperazin-1-yl)acetamido)phenyl]pyrimidin-4(3H)-one Tartrate] | > 219 | > 155 | > 130 | > 153 |  |  |  |  |  |  |  |  |  |  |  |  |  | No bad smell |  |
